Tests used:
NPC1 null worms = assay: Egg count in NPC1 null nematodes (rescue of nematode model of NPC); format: in vivo, C. elegans; conditions: Day 1 adults; for number of eggs per adult worm relative to DMSO control or SAHA: with or without supplemental cholesterol, p<0.001 relative to DMSO, Student's t-test
Protocol: This experiment tested the ability of Compound 1 to rescue NPC-1 null nematodes. A population of NPC1 null worms was scaled up on large petri plates (100 mm or 60 mm) to produce a large population of gravid adults. One day prior to assay, the adult worms were bleached to obtain all eggs. Eggs were allowed to hatch overnight in M9 by rocking tubes. On day of assay, the presence of L1 larvae was confirmed. A lawn of HB101 bacteria were grown on NGM agar plates (4 ml). The plates were prepared either with or without exogenous cholesterol. […] An additional set of plates prepared with 25% cremaphor alone was used as a second vehicle control. Fifty to seventy L1 larvae were added to each plate and incubated at room temperature for two days. On day 3, L1 worms had matured into Day 1 adults bearing row of eggs. Eggs were counted microscopically and the average number of eggs per adult worm for each incubation condition was calculated. […] There was no statistically significant difference between treatment with DMSO control in the 25% cremaphor carrier relative to the carrier alone (data not shown).

[1] = test system: Coriell GM18453 (I1061T/I1061T) cells; assay: Filipin staining of cholesterol in NPC patient fibroblasts; format: cell-based, human; conditions: 10 μM; for amount of cytoplasmic free/unesterified cholesterol as visualized by filipin staining, relative to vehicle control: 48 hr incubation, FIG. 1
Protocol: Compound 1 was tested in vitro for its effect on cholesterol localization in NPC fibroblasts. The following experiments utilized Coriell GM18453 (I1061T/I1061T) cells which are immortalized cell lines prepared from NPC patient fibroblasts. These cells have a known deficiency in cholesterol esterification. Compound 1 (FIG. 1B), U18666A (positive control, FIG. 1C), and DMSO (vehicle control, FIG. 1A) were individually dispensed into 96 well In Vitro Scientific glass bottom black walled plates using the Echo acoustic liquid handler for the final concentrations indicated. Cells were suspended in media (DMEM, 5% FBS, 1% P/S, 2 mM L-glutamine) and then added to each well at 1750 cells per well. The final concentration of Compound 1 and […] was 10 μM. After a 48 hr incubation cells were fixed and stained with filipin using components from the Cholesterol Cell Based Detection Kit from Cayman. Filipin was used at a final concentration of 50 μg/mL. Cells were imaged using the ImageXpress from Molecular Devices and analyzed with MetaXpress. […] The experiment was repeated in GM18453 cells except that filipin staining was assessed in one set of wells every 24 hours for a total of five days. FIG. 2A provides an exemplary photomicrograph of a cells treated with vehicle control. There were no notable changes to the filipin staining of the vehicle-treated over the five day culture period, FIG. 2B-2F are representative photomicrographs of the Compound 1-treated cells after 1-5 days in culture, respectively.

Molecule | number of eggs per adult worm relative to DMSO control or SAHA (NPC1 null worms; 0.5%, FIG. 3E) | amount of cytoplasmic free/unesterified cholesterol as visualized by filipin staining, relative to vehicle control [1] | egg laying deficit of NPC null nematodes (eggs per adult worm) (NPC1 null worms; 75 μM, FIG. 3B) | amount of cytoplasmic free/unesterified cholesterol (filipin staining), time course ([1]; assessed every 24 hours for five days, FIG. 2) | number of eggs per adult worm relative to DMSO control or SAHA (NPC1 null worms; 25 μM, FIG. 3C)
cyclodextrin | statistically significant increase in the number of eggs per adult worm |  |  |  | 
CCN(CC)CCO[C@H]1CC[C@@]2(C)C(=CC[C@@H]3[C@@H]2CC[C@]2(C)C(=O)CC[C@@H]32)C1 [Compound U18666A] |  | increase in the amount of cytoplasmic free/unesterified cholesterol | significantly exacerbates the egg laying deficit |  | 
CN(C)CCCn1ccc2c(nnc3c(-c4ccc(F)cc4)cnn32)c1=O [Compound 1, 11-[3-(Dimethylamino)propyl]-5-(p-fluorophenyl)-2.3.7.8.11-pentazatricyclo[7.4.0.0^2,6]trideca-1(9),3,5,7,12-pentaen-10-one] |  | increase in the amount of cytoplasmic free/unesterified cholesterol |  | Increases in the amount of cytoplasmic free/unesterified cholesterol were observed after a 24 hour culture period and the effect was sustained throughout the five day study period | statistically significant increase in the number of eggs per adult worm

From US10166236B2, “Pharmaceutical formulations comprising substituted pyrazolo[5,1-c]pyrido[4,3-e][1,2,4]triazines for treating lysosomal storage disorders” (Perlara PBC, priority 2016, dated 2019)
